One may read the half-life as the time needed for the level to fall by half in the phase considered. As a reminder, the clearance is the rate of elimination divided by the concentration.

A short description of data set [1]: Pharmacokinetic study, DDFP blood levels by headspace GC-MS. It is filed as in vivo, New Zealand White rabbits. The method, then:
Pharmacokinetic study. In alert New Zealand White rabbits (5.1±0.5 kg; N=8), cannulae were placed in a vein of one ear and in an artery of the other ear. After intravenous injection of DDFPe (0.6 ml/kg in a 2% w/v emulsion) arterial blood samples were taken over a period of 4 to 7 h. The dose of DDFPe was repeated every 90 min in four animals. Samples were stored at −20° C. until they were analyzed for DDFP content by a headspace gas chromatograph-mass spectrometer (Varian TSQ).
Because infarct volumes were not normally distributed, ranks of infarct volume were analyzed with PROC GLM of SAS software (Kruskal-Wallis equivalent). Blood levels of DDFP were analyzed for exponential curve fit and exponential decay time constant using KaleidaGraph software v4.01 (2005). Values are given as mean±standard error.

For data set [2] the following is noted: in the liquid PFC; cited from earlier work.
The conditions of data set [3]: cited from earlier work.

Read-outs that look alike come from different tables or passages of the source. Where only a bound is given, the exact number is not on record here.

As to `FC(F)(F)C(F)(F)C(F)(F)C(F)(F)C(F)(F)F` [DDFP, dodecafluoropentane], the half-life in data set [1] (New Zealand White, rabbit, arterial whole blood, intravenous, FIG. 15, 0.6 ml/kg of 2% w/v emulsion, read-out: half-life in blood, representative rabbit) was 1.68 min; in data set [1] (New Zealand White, rabbit, arterial whole blood, single DDFPe dose of 0.6 ml/kg IV, N=4, read-out: mean half-life in blood), 1.45 ± 0.17 min. Besides, in data set [1] (New Zealand White, rabbit, arterial whole blood, single DDFPe dose of 0.6 ml/kg IV), the clearance is 4.71 ± 1.49 L/h/kg. The “time for blood level to return to the baseline level after each dose” value in data set [1] (multiple doses at 90 min intervals) was “less than 30 min”. The “time for blood levels to reach non-detectable levels” value in data set [1] (single DDFPe dose of 0.6 ml/kg IV) is recorded as ≤ 30 min. For the same molecule, the accumulation in blood result in data set [1] (up to five doses of 0.6 ml/kg at 90 min intervals) is given as “no sign of accumulation”. Also, the solubility of oxygen in data set [2] is reported as 80 % v/v. For the same molecule, the half-life in blood in data set [3] (humans, previous study) was 2.2 ± 1.2 min. Besides, the “half-life in the blood” value in data set [3] (intravenous administration) was 2 min. Moreover, the “DDFP cleared through the lungs / recovered from expired air” value in data set [3] (within 2 hours after single intravenous dose) was 99%.
For the molecule `FC1(F)C(F)(F)C(F)(F)C2(F)C(F)(F)C(F)(F)C(F)(F)C(F)(F)C2(F)C1(F)F` (stereo not drawn) [PFD, perfluorodecalin], in data set [2], the solubility of oxygen was 42 % v/v.
Consider `FC(F)(F)C(F)(F)C(F)(F)C(F)(F)C(F)(F)C(F)(F)C(F)(F)C(F)(F)Br` [PFOB, perfluorooctylbromide], for which the solubility of oxygen in data set [2] is 50 % v/v.

(Values after patent US11571467B2, “Dodecafluoropentane emulsion as a stroke and ischemia therapy” (The Board of Trustees of the University of Arkansas, priority 2011, dated 2023).)
